The text below walks through data of US11690810B2, “Combination treatment of bacterial infection” (The Chinese University of Hong Kong, priority 2018, dated 2023).

In data set [1] the test system is Human Umbilical Vein Endothelial Cells (HUVEC). As to the kind of experiment: XTT cytotoxicity testing. Conditions: 2-64 μg/ml, vs drug free control.
Data set [2] deals with clinical MRSA ST239. Description: Mouse pneumonia model, ST239 (neutropenic mice). The class given is in vivo, Balb/c mice. Conditions: ST239; 48 h; 1 also died in control.
For data set [3], the system named is Panton-Valentine leukocidin positive CA-MRSA strain ST30. Format: in vivo, Balb/c mice. The following applies: ST30; used alone at 60 and 120 mg/kg.

As to `O=C(O[C@@H]1Cc2c(O)cc(O)cc2O[C@@H]1c1ccc(O)c(O)c1)c1cc(O)c(O)c(O)c1` [ECG, epicatechin gallate], in data set [1], the “Cellular toxicity (XTT assay)” value is recorded as “not toxic”. For the same molecule, the mice died in data set [2] was 1 mouse. In data set [3], the “log CFU counts and survival rates” value was “could not reduce the log CFU counts or improve the survival rates”.
